Measurements: ChEMBL document CHEMBL3286379, “Design and synthesis of pyrimidine molecules endowed with thiazolidin-4-one as new anticancer agents” (Eur J Med Chem, 2014)

Assays:
Type in all cases: functional
[1] = tested on: HL-60(TB); test: Growth inhibition of human HL-60(TB) cells assessed as cell growth at 10 uM after 48 hrs by sulforhodamine B assay relative to control; settings: HL-60, 48 h, read-out: Activity
[2] = tested on: K562; test: Growth inhibition of human K562 cells assessed as cell growth at 10 uM after 48 hrs by sulforhodamine B assay relative to control; settings: K562, 48 h, read-out: Activity
[3] = Growth inhibition of human MOLT4 cells assessed as cell growth at 10 uM after 48 hrs by sulforhodamine B assay relative to control; settings: MOLT-4, 48 h, read-out: Activity
[4] = tested on: RPMI-8226; test: Growth inhibition of human RPMI8226 cells assessed as cell growth at 10 uM after 48 hrs by sulforhodamine B assay relative to control; settings: RPMI-8226, 48 h, read-out: Activity
[5] = tested on: A549; test: Growth inhibition of human A549/ATCC cells assessed as cell growth at 10 uM after 48 hrs by sulforhodamine B assay relative to control; settings: A549, 48 h, read-out: Activity
[6] = tested on: HOP-62; test: Growth inhibition of human HOP62 cells assessed as cell growth at 10 uM after 48 hrs by sulforhodamine B assay relative to control; settings: HOP-62, 48 h, read-out: Activity
[7] = tested on: NCI-H23; test: Growth inhibition of human NCI-H23 cells assessed as cell growth at 10 uM after 48 hrs by sulforhodamine B assay relative to control; settings: NCI-H23, 48 h, read-out: Activity
[8] = tested on: NCI-H460; test: Growth inhibition of human NCI-H460 cells assessed as cell growth at 10 uM after 48 hrs by sulforhodamine B assay relative to control; settings: NCI-H460, 48 h, read-out: Activity
[9] = tested on: NCI-H522; test: Growth inhibition of human NCI-H522 cells assessed as cell growth at 10 uM after 48 hrs by sulforhodamine B assay relative to control; settings: NCI-H522, 48 h, read-out: Activity
[10] = tested on: COLO 205; test: Growth inhibition of human COLO205 cells assessed as cell growth at 10 uM after 48 hrs by sulforhodamine B assay relative to control; settings: COLO 205, 48 h, read-out: Activity
[11] = tested on: HCT-116; test: Growth inhibition of human HCT116 cells assessed as cell growth at 10 uM after 48 hrs by sulforhodamine B assay relative to control; settings: HCT-116, 48 h, read-out: Activity
[12] = Growth inhibition of human HCT15 cells assessed as cell growth at 10 uM after 48 hrs by sulforhodamine B assay relative to control; settings: HCT-15, 48 h, read-out: Activity
[13] = tested on: SW-620; test: Growth inhibition of human SW620 cells assessed as cell growth at 10 uM after 48 hrs by sulforhodamine B assay relative to control; settings: SW-620, 48 h, read-out: Activity
[14] = tested on: SF-268; test: Growth inhibition of human SF268 cells assessed as cell growth at 10 uM after 48 hrs by sulforhodamine B assay relative to control; settings: SF-268, 48 h, read-out: Activity
[15] = Growth inhibition of human SF295 cells assessed as cell growth at 10 uM after 48 hrs by sulforhodamine B assay relative to control; settings: SF-295, 48 h, read-out: Activity
[16] = Growth inhibition of human SF539 cells assessed as cell growth at 10 uM after 48 hrs by sulforhodamine B assay relative to control; settings: SF-539, 48 h, read-out: Activity
[17] = tested on: SNB-19; test: Growth inhibition of human SNB19 cells assessed as cell growth at 10 uM after 48 hrs by sulforhodamine B assay relative to control; settings: SNB-19, 48 h, read-out: Activity
[18] = tested on: M14; test: Growth inhibition of human M14 cells assessed as cell growth at 10 uM after 48 hrs by sulforhodamine B assay relative to control; settings: M14, 48 h, read-out: Activity
[19] = tested on: MDA-MB-435; test: Growth inhibition of human MDA-MB-435 cells assessed as cell growth at 10 uM after 48 hrs by sulforhodamine B assay relative to control; settings: MDA-MB-435, 48 h, read-out: Activity
[20] = tested on: SK-MEL-2; test: Growth inhibition of human SK-MEL-2 cells assessed as cell growth at 10 uM after 48 hrs by sulforhodamine B assay relative to control; settings: SK-MEL-2, 48 h, read-out: Activity
[21] = tested on: SK-MEL-5; test: Growth inhibition of human SK-MEL-5 cells assessed as cell growth at 10 uM after 48 hrs by sulforhodamine B assay relative to control; settings: SK-MEL-5, 48 h, read-out: Activity
[22] = Growth inhibition of human UACC62 cells assessed as cell growth at 10 uM after 48 hrs by sulforhodamine B assay relative to control; settings: UACC-62, 48 h, read-out: Activity
[23] = Growth inhibition of human OVCAR3 cells assessed as cell growth at 10 uM after 48 hrs by sulforhodamine B assay relative to control; settings: OVCAR-3, 48 h, read-out: Activity
[24] = Growth inhibition of human OVCAR4 cells assessed as cell growth at 10 uM after 48 hrs by sulforhodamine B assay relative to control; settings: OVCAR-4, 48 h, read-out: Activity
[25] = tested on: 786-0; test: Growth inhibition of human 786-0 cells assessed as cell growth at 10 uM after 48 hrs by sulforhodamine B assay relative to control; settings: 786-0, 48 h, read-out: Activity
[26] = tested on: ACHN; test: Growth inhibition of human ACHN cells assessed as cell growth at 10 uM after 48 hrs by sulforhodamine B assay relative to control; settings: read-out: Activity
[27] = tested on: CAKI-1; test: Growth inhibition of human CAKI-1 cells assessed as cell growth at 10 uM after 48 hrs by sulforhodamine B assay relative to control; settings: CAKI-1, 48 h, read-out: Activity
[28] = Growth inhibition of human RXF393 cells assessed as cell growth at 10 uM after 48 hrs by sulforhodamine B assay relative to control; settings: RXF 393, 48 h, read-out: Activity
[29] = tested on: SN12C; test: Growth inhibition of human SN12C cells assessed as cell growth at 10 uM after 48 hrs by sulforhodamine B assay relative to control; settings: read-out: Activity
[30] = tested on: MDA-MB-231; test: Growth inhibition of human MDA-MB-231 cells assessed as cell growth at 10 uM after 48 hrs by sulforhodamine B assay relative to control; settings: MDA-MB-231, 48 h, read-out: Activity
[31] = Growth inhibition of human Hs 578T cells assessed as cell growth at 10 uM after 48 hrs by sulforhodamine B assay relative to control; settings: read-out: Activity
[32] = Growth inhibition of human BT549 cells assessed as cell growth at 10 uM after 48 hrs by sulforhodamine B assay relative to control; settings: BT-549, 48 h, read-out: Activity
[33] = tested on: T47D; test: Growth inhibition of human T47D cells assessed as cell growth at 10 uM after 48 hrs by sulforhodamine B assay relative to control; settings: read-out: Activity
[34] = tested on: MDA-MB-468; test: Growth inhibition of human MDA-MB-468 cells assessed as cell growth at 10 uM after 48 hrs by sulforhodamine B assay relative to control; settings: MDA-MB-468, 48 h, read-out: Activity

Row | SMILES | growth at 10 µM [1] [%] | growth at 10 µM [2] [%] | growth at 10 µM [3] [%] | growth at 10 µM [4] [%] | growth at 10 µM [5] [%] | growth at 10 µM [6] [%] | growth at 10 µM [7] [%] | growth at 10 µM [8] [%] | growth at 10 µM [9] [%] | growth at 10 µM [10] [%] | growth at 10 µM [11] [%] | growth at 10 µM [12] [%] | growth at 10 µM [13] [%] | growth at 10 µM [14] [%] | growth at 10 µM [15] [%] | growth at 10 µM [16] [%] | growth at 10 µM [17] [%] | growth at 10 µM [18] [%] | growth at 10 µM [19] [%] | growth at 10 µM [20] [%] | other results
1 | Nc1nc(-c2ccccc2Cl)cc(-c2ccc(Cl)cc2Cl)n1 | 51.4 | 27.3 | 52.6 | 35.2 | 52.7 | 76.2 | 75.4 | 49.8 | 68.5 | 64.9 | 33 | 90.2 | 39 | 65.9 | 38.7 | 72.2 | 78.2 | 53.5 | 0.07 | 96.2 | growth at 10 µM [21]: 75.2%; growth at 10 µM [22]: 63.1%; growth at 10 µM [23]: 85.2%; growth at 10 µM [24]: 79.6%; growth at 10 µM [25]: 90.2%; growth at 10 µM [26]: 86%; growth at 10 µM [27]: 68%; growth at 10 µM [28]: 75.8%; growth at 10 µM [29]: 79.6%; growth at 10 µM [30]: 65%; growth at 10 µM [31]: 61.9%; growth at 10 µM [32]: 75.3%; growth at 10 µM [33]: 63.7%; growth at 10 µM [34]: 18.6%
2 | O=C1CS/C(=N\c2nc(-c3ccccc3Cl)cc(-c3ccc(Cl)cc3Cl)n2)N1 | 96.1 | 79.5 | 92 | 99.6 | 91.2 | 87.5 | 90 | 103 | 88.6 | 100 | 94.5 | 102 | 92.9 | 92.2 | 116 | 103 | 101 | 94 | 78.5 | 97.9 | growth at 10 µM [21]: 103%; growth at 10 µM [22]: 91.2%; growth at 10 µM [23]: 101%; growth at 10 µM [24]: 96.1%; growth at 10 µM [25]: 99.7%; growth at 10 µM [26]: 98.1%; growth at 10 µM [27]: 88.6%; growth at 10 µM [28]: 111%; growth at 10 µM [29]: 98.5%; growth at 10 µM [30]: 88.8%; growth at 10 µM [31]: 97.7%; growth at 10 µM [32]: 98.4%; growth at 10 µM [33]: 86.5%; growth at 10 µM [34]: 93.5%
3 | O=C1N/C(=N/c2nc(-c3ccccc3Cl)cc(-c3ccc(Cl)cc3Cl)n2)S/C1=C/c1ccc(Cl)cc1 | 87.1 | 37.6 | 94.2 | 83.6 | 88.8 | 80.2 | 76 | 87.2 | 82.3 | 83.2 | 75.4 | 90 | 76.6 | 90.9 | 48.6 | 97.3 | 93.4 | 102 | 32.1 | 88.9 | growth at 10 µM [21]: 83.6%; growth at 10 µM [22]: 70.2%; growth at 10 µM [23]: 89.2%; growth at 10 µM [24]: 81.9%; growth at 10 µM [25]: 100%; growth at 10 µM [26]: 91.6%; growth at 10 µM [27]: 97.2%; growth at 10 µM [28]: 100%; growth at 10 µM [29]: 91.5%; growth at 10 µM [30]: 63.2%; growth at 10 µM [31]: 91.9%; growth at 10 µM [32]: 92.2%; growth at 10 µM [33]: 60.9%; growth at 10 µM [34]: 34.2%
